Columns and labels:
murine thymocyte = assay: thymocyte proliferation stimulated by ConA and IL-2; format: cell-based, murine (female Balb/C mice); conditions: IL-2 20 ng/ml; drug two hours prior; FIG. 4
Procedure: A thymocyte costimulator assay is conducted to evaluate the inventive compounds to inhibit activation and proliferation of thymocytes caused by stimulation with Con A and interleukin-1 (IL-1), or […]. Thymuses are obtained from mice (e.g., female Balb/C mice) and the thymuses are removed and dissociated into culture media (e.g., RPMI 1640 without serum supplementation). The dissociated thymus tissue and cell suspension is transferred to centrifuge tubes and allowed to settle, washed with HBSS and resuspended in serum-supplemented culture media (e.g., RPMI 1640 with 10% fetal calf serum). Any contaminating red cells are lysed, and viable cells are resuspended and counted. Thymocytes are plated (e.g., 96-well plates at a density of 2×10^5 cells/well) and a stimulating agent, such as Con A, IL-1 (e.g., IL-1α) or IL-2 is added to the well. The cells are incubated for 4 days at 37° C. On the fourth day, the cells are pulsed with tritiated thymidine and cell proliferation determined. […]
1522 on inhibition of thymocyte proliferation stimulated by ConA and interleukin-2 (IL-2) (20 ng/ml). Compound no. […]
Thymuses, obtained from normal, female Balb/C mice, were dissociated and plated into 96-well plates at a density of 2×10^5 cells/well. […] The amount of tritiated thymidine dye incorporated by the harvested cells was determined in a liquid scintillation counter. […]

[1] = test system: PBMC (peripheral blood mononuclear cells); assay: two-way mixed lymphocyte reaction; format: cell-based, human; conditions: FIG. 1; 6 days culture
Excerpt: Various in vitro assays can be used to measure effects of the inventive compounds to module immune activity and have antitumor activity using a variety of cellular types. For example, a mixed lymphocyte reaction (MLR) provides a valuable screening tool to determine biological activity of each inventive compound. In the MLR, PBMCs (peripheral blood mononuclear cells) are obtained by drawing whole blood from healthy volunteers in a heparinized container and diluted with an equal volume of hanks balanced salt solution (HBSS). This mixture is layered on a sucrose density gradient, such as a Ficoll-Hypaque® gradient (specific gravity 1.08), and centrifuged at 1000×g for 25 minutes at room temperature or cooler. PBMC are obtained from a band at a plasma-Ficoll interface, separated and washed at least twice in a saline solution, such as HBSS. Contaminating red cells are lysed, such as by ACK lysis for 10 min at 37° C., and the PBMCs are washed twice in HBSS. The pellet of purified PBMCs is resuspended in complete medium, such as RPMI 1640 plus 20% human inactivated serum. Proliferative response of PBMC to allogeneic stimulation is determined in a two-way MLR performed in a 96-well microtiter plate. Briefly, approximately 10^5 test purified PBMC cells in 200 μl complete medium are co-cultured with approximately 10^5 autologous (control culture) or allogeneic (stimulated culture) PBMC cells, wherein the allogeneic cells are from HLA disparate individuals. Varying doses of compounds (drug) are added at the time of addition of cells to the microtiter plate. The cultures are incubated for 6 days at 37° C. in a 5% CO2 atmosphere. At the conclusion of the incubation tritiated thymidine is added (for example, 1 μCi/well of 40 to 60 Ci/mmole) and proliferation determined by liquid scintillation. counting.
Example 10 illustrates a mixed lymphocyte reaction of inventive compounds nos. 1521 and 1522 (see above for chemical name and structure). […] Both compounds nos. […]

P388D1 cells [2] = assay: TNF-α release from LPS-stimulated P388D1 cells; format: cell-based, murine; conditions: 0.25 mM, LPS 10 μg/ml
Procedure: (§1) This example illustrates the ability of compound no. 1521 to inhibit TNF-α release from P388D1 cells (a murine monocyte/macrophage line) when stimulated with LPS. This assay is a model for septic shock. P388D1 cells (10^5) were treated with LPS at 10 μg/ml in RPMI media containing 10% fetal calf serum. Supernatants were assayed for TNF by an ELISA technique at various times following LPS stimulation. The cells were treated one hour prior to LPS stimulation with 0.25 mM compound no. 1521.

P388D1 cells [3] = assay: IL-1α release from LPS-stimulated P388D1 cells; format: cell-based, murine; conditions: 0.25 mM, LPS 10 μg/ml
Procedure: as §1, with “of inventive” for “of”, “IL-1α” for “TNF-α”, “cells” for “cells (a murine monocyte/macrophage line)”, “IL-1α” for “TNF”, “mM of” for “mM”

[4] = test system: murine peritoneal macrophages; assay: TNF-α release from LPS-stimulated murine peritoneal macrophages; format: cell-based; conditions: 0.25 mM, LPS 10 μg/ml
Procedure: as §1, with “of inventive” for “of”, “from” for “from P388D1 cells (a”, “peritoneal macrophages” for “monocyte/macrophage line)”, “Macrophages” for “P388D1 cells”, “mM of inventive” for “mM”

CON=C(C)CCCCn1c(=O)c2c(ncn2C)n(C)c1=O [Compound no. 1522]
inhibition of thymocyte proliferation, ConA + IL-2 (murine thymocyte): inhibited thymocyte proliferation at the higher doses tested
proliferative response of PBMC to allogeneic stimulation (MLR) [1]: showed activity in this immune modulating activity assay procedure

CC(CCCCn1c(=O)c2c(ncn2C)n(C)c1=O)=NO [Compound no. 1521]
inhibition of TNF-α release (P388D1 cells [2]): inhibited TNF release
inhibition of IL-1α release (P388D1 cells [3]): inhibited IL-1α release
inhibition of TNF-α release [4]: inhibited TNF release
proliferative response of PBMC to allogeneic stimulation (MLR) [1]: showed activity in this immune modulating activity assay procedure

— patent US5770595A, “Oxime substituted therapeutic compounds” (Cell Therapeutics, Inc., priority 1994, dated 1998)
